Key:
Experiment in all cases: cells
Settings in all cases: Homo sapiens
[1] = tested on: NCI-H1355; format: functional, cell-based;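 note: growth inhibition of human NCI-H1355 cells, read out by a cell viability assay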
Description: SANGER: Inhibition of human NCI-H1355 cell growth in a cell viability assay.

[2] = tested on: EFO-21; format: functional, cell-based;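 note: growth inhibition of EFO-21 cells measured with a viability assay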
Description: SANGER: Inhibition of human EFO-21 cell growth in a cell viability assay.

[3] = tested on: LAN-6; format: functional, cell-based;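 note: growth inhibition of LAN-6 cells, determined with a cell viability assay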
Description: SANGER: Inhibition of human LAN-6 cell growth in a cell viability assay.

[4] = tested on: TE-1; format: functional, cell-based;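 note: growth inhibition of the human TE-1 cell line, read out with a cell viability assay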
Description: SANGER: Inhibition of human TE-1 cell growth in a cell viability assay.

[5] = tested on: IST-MES1; format: functional, cell-based;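 note: growth inhibition of IST-MES1 cells, measured with a cell viability assay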
Description: SANGER: Inhibition of human IST-MES1 cell growth in a cell viability assay.

[6] = tested on: G-401; format: functional, cell-based
Description: SANGER: Inhibition of human G-401 cell growth in a cell viability assay.

[7] = tested on: SJSA-1; format: functional, cell-based;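 note: growth inhibition of human SJSA-1 cells, read out through a cell viability measurement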
Description: SANGER: Inhibition of human SJSA-1 cell growth in a cell viability assay.

[8] = tested on: PSN1; format: functional, cell-based;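 note: suppression of growth of human PSN1 cells, read out by a cell viability assay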
Description: SANGER: Inhibition of human PSN1 cell growth in a cell viability assay.

[9] = tested on: LB2241-RCC; format: functional, cell-based;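 note: cell viability assay measuring how strongly the cultured human renal carcinoma line is prevented from growing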
Description: SANGER: Inhibition of human LB2241-RCC cell growth in a cell viability assay.

[10] = tested on: GB-1; format: functional, cell-based;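 note: growth of GB-1 cells judged by a viability assay, IC50 marks the concentration inhibiting growth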
Description: SANGER: Inhibition of human GB-1 cell growth in a cell viability assay.

[11] = tested on: SK-N-FI; format: functional, cell-based;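 note: cell viability assay measuring growth inhibition of human SK-N-FI cells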
Description: SANGER: Inhibition of human SK-N-FI cell growth in a cell viability assay.

[12] = tested on: VM-CUB-1; format: functional, cell-based;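 note: cell viability assay measuring growth inhibition of the human VM-CUB-1 cell line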
Description: SANGER: Inhibition of human VM-CUB-1 cell growth in a cell viability assay.

[13] = tested on: KYSE-410; format: functional, cell-based;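 note: growth inhibition of KYSE-410 cells, measured through a cell viability readout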
Description: SANGER: Inhibition of human KYSE-410 cell growth in a cell viability assay.

[14] = tested on: NCI-H1770; format: functional, cell-based;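 note: growth inhibition of NCI-H1770 cells determined with a viability readout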
Description: SANGER: Inhibition of human NCI-H1770 cell growth in a cell viability assay.

[15] = tested on: EKVX; format: functional, cell-based;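 note: growth inhibition of human EKVX cells, read out with a cell viability assay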
Description: SANGER: Inhibition of human EKVX cell growth in a cell viability assay.

[16] = tested on: RCC10RGB; format: functional, cell-based;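 note: growth inhibition of human RCC10RGB cells, read out by a cell viability assay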
Description: SANGER: Inhibition of human RCC10RGB cell growth in a cell viability assay.

[17] = tested on: LU-99A; format: functional, cell-based;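 note: growth inhibition of LU-99A cells, read out with a cell viability assay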
Description: SANGER: Inhibition of human LU-99A cell growth in a cell viability assay.

[18] = tested on: EC-GI-10; format: functional, cell-based
Description: SANGER: Inhibition of human EC-GI-10 cell growth in a cell viability assay.

[19] = tested on: KGN; format: functional, cell-based;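 note: growth inhibition of KGN cells, read out with a cell viability assay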
Description: SANGER: Inhibition of human KGN cell growth in a cell viability assay.

[20] = tested on: KURAMOCHI; format: functional, cell-based;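 note: growth inhibition of KURAMOCHI cells, read out with a cell viability assay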
Description: SANGER: Inhibition of human KURAMOCHI cell growth in a cell viability assay.

[21] = tested on: MV4-11; format: functional, cell-based, MV-4-11;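 note: cell viability readout measuring growth inhibition of human MV-4-11 cells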
Description: SANGER: Inhibition of human MV-4-11 cell growth in a cell viability assay.

[22] = tested on: COLO-320-HSR; format: functional, cell-based;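 note: growth inhibition of COLO-320-HSR cells, determined with a cell viability assay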
Description: SANGER: Inhibition of human COLO-320-HSR cell growth in a cell viability assay.

[23] = tested on: SK-MEL-1; format: functional, cell-based;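 note: growth inhibition of human SK-MEL-1 cells, read out by a cell viability assay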
Description: SANGER: Inhibition of human SK-MEL-1 cell growth in a cell viability assay.

[24] = tested on: SCH; format: functional, cell-based;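 note: growth inhibition of human SCH cells, read out in a cell viability assay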
Description: SANGER: Inhibition of human SCH cell growth in a cell viability assay.

[25] = tested on: EFM-19; format: functional, cell-based;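 note: growth inhibition of human EFM-19 cells, measured in a cell viability assay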
Description: SANGER: Inhibition of human EFM-19 cell growth in a cell viability assay.

[26] = tested on: SW982; format: functional, cell-based;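 note: growth inhibition of SW982 cells, read out with a cell viability assay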
Description: SANGER: Inhibition of human SW982 cell growth in a cell viability assay.

[27] = tested on: NCI-H446; format: functional, cell-based;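 note: growth inhibition of NCI-H446 cells determined by a cell viability assay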
Description: SANGER: Inhibition of human NCI-H446 cell growth in a cell viability assay.

[28] = tested on: NCI-H23; format: functional, cell-based;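 note: cell viability assay measuring growth inhibition of NCI-H23 cells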
Description: SANGER: Inhibition of human NCI-H23 cell growth in a cell viability assay.

[29] = tested on: P30-OHK; format: functional, cell-based;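 note: growth inhibition of the P30-OHK cell line, read out with a cell viability assay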
Description: SANGER: Inhibition of human P30-OHK cell growth in a cell viability assay.

[30] = tested on: A498; format: functional, cell-based;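 note: growth inhibition of human A498 cells, read out with a cell viability assay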
Description: SANGER: Inhibition of human A498 cell growth in a cell viability assay.

[31] = tested on: HuP-T4; format: functional, cell-based;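 note: cell viability assay measuring how much HuP-T4 cell growth is inhibited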
Description: SANGER: Inhibition of human HuP-T4 cell growth in a cell viability assay.

[32] = tested on: SF-268; format: functional, cell-based;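 note: growth inhibition of SF-268 cells determined with a cell viability assay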
Description: SANGER: Inhibition of human SF268 cell growth in a cell viability assay.

[33] = tested on: L-363; format: functional, cell-based
Description: SANGER: Inhibition of human L-363 cell growth in a cell viability assay.

[34] = tested on: NKM-1; format: functional, cell-based;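 note: growth inhibition of NKM-1 cells, read out with a cell viability assay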
Description: SANGER: Inhibition of human NKM-1 cell growth in a cell viability assay.

[35] = tested on: KG-1; format: functional, cell-based;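 note: growth inhibition of KG-1 cells, read out by a cell viability assay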
Description: SANGER: Inhibition of human KG-1 cell growth in a cell viability assay.

[36] = tested on: MN-60; format: functional, cell-based;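 note: growth inhibition of the MN-60 cell line, determined with a cell viability assay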
Description: SANGER: Inhibition of human MN-60 cell growth in a cell viability assay.

[37] = tested on: NCI-H526; format: functional, cell-based;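 note: growth inhibition of the human NCI-H526 cell line, measured by a cell viability assay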
Description: SANGER: Inhibition of human NCI-H526 cell growth in a cell viability assay.

[38] = tested on: RXF 393; format: functional, cell-based;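 note: growth inhibition of human RXF 393 cells, read out with a cell viability assay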
Description: SANGER: Inhibition of human RXF393 cell growth in a cell viability assay.

[39] = tested on: SK-MEL-2; format: functional, cell-based;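 note: growth inhibition of human SK-MEL-2 cells measured with a cell viability assay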
Description: SANGER: Inhibition of human SK-MEL-2 cell growth in a cell viability assay.

[40] = tested on: LU-139; format: functional, cell-based
Description: SANGER: Inhibition of human LU-139 cell growth in a cell viability assay.

[41] = tested on: ES6; format: functional, cell-based;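 note: growth inhibition of human ES6 cells, read out with a cell viability assay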
Description: SANGER: Inhibition of human ES6 cell growth in a cell viability assay.

[42] = tested on: NCI-H69; format: functional, cell-based;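 note: growth inhibition of the cell line, read out with a cell viability assay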
Description: SANGER: Inhibition of human NCI-H69 cell growth in a cell viability assay.

[43] = tested on: no-11; format: functional, cell-based;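 note: growth inhibition of human NO-11 cells, read out with a cell viability assay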
Description: SANGER: Inhibition of human no-11 cell growth in a cell viability assay.

[44] = tested on: TE-11; format: functional, cell-based;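 note: growth inhibition of human TE-11 cells, read out by a cell viability assay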
Description: SANGER: Inhibition of human TE-11 cell growth in a cell viability assay.

[45] = tested on: TGBC1TKB; format: functional, cell-based;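 note: growth inhibition of TGBC1TKB cells, read out by a cell viability assay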
Description: SANGER: Inhibition of human TGBC1TKB cell growth in a cell viability assay.

[46] = tested on: ATN-1; format: functional, cell-based;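 note: growth inhibition of human ATN-1 cells, read out with a cell viability assay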
Description: SANGER: Inhibition of human ATN-1 cell growth in a cell viability assay.

[47] = tested on: HEL; format: functional, cell-based;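 note: growth inhibition of HEL cells, read out with a cell viability assay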
Description: SANGER: Inhibition of human HEL cell growth in a cell viability assay.

[48] = tested on: EW-11; format: functional, cell-based;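 note: growth inhibition of human EW-11 cells, measured with a cell viability assay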
Description: SANGER: Inhibition of human EW-11 cell growth in a cell viability assay.

[49] = tested on: NH-12; format: functional, cell-based;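 note: growth inhibition of NH-12 cells, read out with a cell viability assay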
Description: SANGER: Inhibition of human NH-12 cell growth in a cell viability assay.

[50] = tested on: SH-4; format: functional, cell-based;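 note: growth inhibition of SH-4 cells, read out with a cell viability assay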
Description: SANGER: Inhibition of human SH-4 cell growth in a cell viability assay.

[51] = tested on: NCI-H1092; format: functional, cell-based;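 note: cell growth inhibition measured with a cell viability assay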
Description: SANGER: Inhibition of human NCI-H1092 cell growth in a cell viability assay.

[52] = tested on: M14; format: functional, cell-based;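 note: growth inhibition of M14 cells, read out with a cell viability assay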
Description: SANGER: Inhibition of human M14 cell growth in a cell viability assay.

[53] = tested on: PANC-08-13; format: functional, cell-based;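 note: cell growth inhibition, measured with a cell viability assay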
Description: SANGER: Inhibition of human PANC-08-13 cell growth in a cell viability assay.

[54] = tested on: LU-134-A; format: functional, cell-based
Description: SANGER: Inhibition of human LU-134-A cell growth in a cell viability assay.

[55] = tested on: EW-13; format: functional, cell-based
Description: SANGER: Inhibition of human EW-13 cell growth in a cell viability assay.

[56] = tested on: LS-123; format: functional, cell-based
Description: SANGER: Inhibition of human LS-123 cell growth in a cell viability assay.

[57] = tested on: Lu-65; format: functional, cell-based
Description: SANGER: Inhibition of human LU-65 cell growth in a cell viability assay.

[58] = tested on: LB2518-MEL; format: functional, cell-based
Description: SANGER: Inhibition of human LB2518-MEL cell growth in a cell viability assay.

[59] = tested on: NCI-H720; format: functional, cell-based
Description: SANGER: Inhibition of human NCI-H720 cell growth in a cell viability assay.

[60] = tested on: KARPAS-299; format: functional, cell-based
Description: SANGER: Inhibition of human KARPAS-299 cell growth in a cell viability assay.

[61] = tested on: NCI-H1838; format: functional, cell-based
Description: SANGER: Inhibition of human NCI-H1838 cell growth in a cell viability assay.

[62] = tested on: OVCAR-4; format: functional, cell-based
Description: SANGER: Inhibition of human OVCAR-4 cell growth in a cell viability assay.

[63] = tested on: CAS-1; format: functional, cell-based
Description: SANGER: Inhibition of human CAS-1 cell growth in a cell viability assay.

[64] = tested on: HH; format: functional, cell-based
Description: SANGER: Inhibition of human HH cell growth in a cell viability assay.

C/C(O)=C(\C#N)C(=O)Nc1cc(Br)ccc1Br
IC50 [1]: > 16000 nM
IC50 [2]: > 16000 nM
IC50 [3]: > 16000 nM
IC50 [4]: > 16000 nM
IC50 [5]: > 16000 nM
IC50 [6]: > 16000 nM
IC50 [7]: > 16000 nM
IC50 [8]: > 16000 nM
IC50 [9]: > 16000 nM
IC50 [10]: > 16000 nM
IC50 [11]: > 16000 nM
IC50 [12]: > 16000 nM
IC50 [13]: > 16000 nM
IC50 [14]: > 16000 nM
IC50 [15]: > 16000 nM
IC50 [16]: > 16000 nM
IC50 [17]: > 16000 nM
IC50 [18]: > 16000 nM
IC50 [19]: > 16000 nM
IC50 [20]: > 16000 nM
IC50 [21]: > 16000 nM
IC50 [22]: > 16000 nM
IC50 [23]: > 16000 nM
IC50 [24]: > 16000 nM
IC50 [25]: > 16000 nM
IC50 [26]: > 16000 nM
IC50 [27]: > 16000 nM
IC50 [28]: > 16000 nM
IC50 [29]: > 16000 nM
IC50 [30]: > 16000 nM
IC50 [31]: > 16000 nM
IC50 [32]: > 16000 nM
IC50 [33]: > 16000 nM
IC50 [34]: > 16000 nM
IC50 [35]: > 16000 nM
IC50 [36]: > 16000 nM
IC50 [37]: > 16000 nM
IC50 [38]: > 16000 nM
IC50 [39]: > 16000 nM
IC50 [40]: > 16000 nM
IC50 [41]: > 16000 nM
IC50 [42]: > 16000 nM
IC50 [43]: > 16000 nM
IC50 [44]: > 16000 nM
IC50 [45]: > 16000 nM
IC50 [46]: > 16000 nM
IC50 [47]: > 16000 nM
IC50 [48]: > 16000 nM
IC50 [49]: > 16000 nM
IC50 [50]: > 16000 nM
IC50 [51]: > 16000 nM
IC50 [52]: > 16000 nM
IC50 [53]: > 16000 nM
IC50 [54]: > 16000 nM
IC50 [55]: > 16000 nM
IC50 [56]: > 16000 nM
IC50 [57]: > 16000 nM
IC50 [58]: > 16000 nM
IC50 [59]: > 16000 nM
IC50 [60]: > 16000 nM
IC50 [61]: > 16000 nM
IC50 [62]: > 16000 nM
IC50 [63]: > 16000 nM

Cc1nc(Nc2ncc(C(=O)Nc3c(C)cccc3Cl)s2)cc(N2CCN(CCO)CC2)n1 [DASATINIB]
IC50 [1]: 110 nM
IC50 [3]: > 1280 nM
IC50 [4]: 105 nM
IC50 [5]: 85.5 nM
IC50 [7]: > 1280 nM
IC50 [8]: 44.7 nM
IC50 [9]: > 1280 nM
IC50 [10]: 21.6 nM
IC50 [11]: > 1280 nM
IC50 [14]: > 1280 nM
IC50 [15]: > 1280 nM
IC50 [16]: 491 nM
IC50 [18]: > 1280 nM
IC50 [19]: 19.4 nM
IC50 [20]: 34.9 nM
IC50 [21]: > 1280 nM
IC50 [22]: > 1280 nM
IC50 [23]: > 1280 nM
IC50 [24]: > 1280 nM
IC50 [26]: 11.1 nM
IC50 [27]: 628 nM
IC50 [28]: > 1280 nM
IC50 [29]: > 1280 nM
IC50 [30]: 72.8 nM
IC50 [32]: 174 nM
IC50 [33]: > 1280 nM
IC50 [34]: > 1280 nM
IC50 [35]: > 1280 nM
IC50 [36]: > 1280 nM
IC50 [37]: > 1280 nM
IC50 [38]: 23.6 nM
IC50 [39]: > 1280 nM
IC50 [40]: > 1280 nM
IC50 [41]: 31.9 nM
IC50 [42]: > 1280 nM
IC50 [43]: 502 nM
IC50 [44]: 78.6 nM
IC50 [45]: 61.6 nM
IC50 [46]: > 1280 nM
IC50 [47]: > 1280 nM
IC50 [48]: > 1280 nM
IC50 [49]: > 1280 nM
IC50 [50]: 184 nM
IC50 [51]: > 1280 nM
IC50 [54]: > 1280 nM
IC50 [55]: > 1280 nM
IC50 [56]: 141 nM
IC50 [57]: > 1280 nM
IC50 [58]: 142 nM
IC50 [59]: > 1280 nM
IC50 [60]: > 1280 nM
IC50 [61]: > 1280 nM
IC50 [64]: > 1280 nM
IC50 [62]: 374 nM
IC50 [63]: > 1280 nM

Cc1n[nH]c2ccc(-c3cncc(OC[C@@H](N)Cc4c[nH]c5ccccc45)c3)cc12 [A-443654]
IC50 [1]: 113 nM
IC50 [3]: 886 nM
IC50 [4]: 111 nM
IC50 [5]: > 1020 nM
IC50 [7]: 376 nM
IC50 [8]: 47.3 nM
IC50 [9]: > 1020 nM
IC50 [10]: 199 nM
IC50 [11]: 845 nM
IC50 [14]: > 1020 nM
IC50 [15]: > 1020 nM
IC50 [16]: > 1020 nM
IC50 [18]: > 1020 nM
IC50 [19]: 118 nM
IC50 [20]: 244 nM
IC50 [21]: 57.7 nM
IC50 [22]: 937 nM
IC50 [23]: > 1020 nM
IC50 [24]: > 1020 nM
IC50 [26]: 166 nM
IC50 [27]: 395 nM
IC50 [28]: > 1020 nM
IC50 [29]: > 1020 nM
IC50 [30]: > 1020 nM
IC50 [32]: > 1020 nM
IC50 [33]: 153 nM
IC50 [34]: > 1020 nM
IC50 [35]: > 1020 nM
IC50 [36]: 487 nM
IC50 [37]: > 1020 nM
IC50 [38]: 657 nM
IC50 [39]: 833 nM
IC50 [40]: 367 nM
IC50 [41]: 91.5 nM
IC50 [42]: 318 nM
IC50 [43]: 130 nM
IC50 [44]: 130 nM
IC50 [45]: 120 nM
IC50 [46]: > 1020 nM
IC50 [47]: 422 nM
IC50 [48]: > 1020 nM
IC50 [49]: > 1020 nM
IC50 [50]: 185 nM
IC50 [51]: 938 nM
IC50 [54]: 363 nM
IC50 [55]: > 1020 nM
IC50 [56]: 337 nM
IC50 [57]: > 1020 nM
IC50 [58]: 397 nM
IC50 [59]: 154 nM
IC50 [60]: 473 nM
IC50 [61]: > 1020 nM
IC50 [64]: 223 nM
IC50 [62]: 243 nM
IC50 [63]: > 1020 nM

CC[C@@]1(O)C(=O)OCc2c1cc1n(c2=O)Cc2cc3ccccc3nc2-1 [CAMPTOTHECIN]
IC50 [1]: 66.1 nM
IC50 [2]: 20.3 nM
IC50 [4]: 35.1 nM
IC50 [5]: 10.6 nM
IC50 [6]: 19.2 nM
IC50 [7]: 18 nM
IC50 [8]: 3.07 nM
IC50 [9]: 2.08 nM
IC50 [10]: 4.68 nM
IC50 [12]: 2.21 nM
IC50 [13]: 78.1 nM
IC50 [17]: 3.85 nM
IC50 [18]: 7.9 nM
IC50 [19]: 10.6 nM
IC50 [20]: > 100 nM
IC50 [21]: 0.706 nM
IC50 [22]: 62.1 nM
IC50 [23]: 51.3 nM
IC50 [24]: > 100 nM
IC50 [26]: 4.06 nM
IC50 [27]: 56.6 nM
IC50 [28]: 40.7 nM
IC50 [29]: 2.79 nM
IC50 [30]: 7.08 nM
IC50 [31]: 0.881 nM
IC50 [32]: 3.38 nM
IC50 [33]: 1.87 nM
IC50 [34]: 0.441 nM
IC50 [35]: 1.11 nM
IC50 [36]: 5.08 nM
IC50 [37]: 1.03 nM
IC50 [38]: 4.66 nM
IC50 [39]: 54.8 nM
IC50 [40]: 16.4 nM
IC50 [41]: 88 nM
IC50 [44]: 16.3 nM
IC50 [46]: 2.04 nM
IC50 [47]: 6.31 nM
IC50 [48]: 2.66 nM
IC50 [49]: 3.79 nM
IC50 [50]: 59.8 nM
IC50 [51]: 43.2 nM
IC50 [52]: 9.95 nM
IC50 [53]: 44.9 nM
IC50 [54]: 0.586 nM
IC50 [55]: 3.27 nM
IC50 [56]: > 100 nM
IC50 [58]: 87.3 nM
IC50 [59]: 44.7 nM
IC50 [60]: > 100 nM
IC50 [64]: 13.5 nM

Reference: ChEMBL document CHEMBL1201861, “Genomics of Drug Sensitity in Cancer screening data, Wellcome Trust Sanger Institute”
